In ChEMBL document CHEMBL4400520, “Benzofuran-isatin-imine hybrids tethered via different length alkyl linkers: Design, synthesis and in vitro evaluation of anti-tubercular and anti-bacterial activities as well as cytotoxicity” (Eur J Med Chem, 2019):
≈ marks a conversion by molar mass, not a printed value.

Tests used:
[1] = AUC (0 to infinity) in ICR mouse at 25 mg/kg, po; assay type: ADME, organism-based; design: dose 25 mg/kg, time infinity, route oral; conditions: in vivo
[2] = Half life in ICR mouse at 25 mg/kg, po; assay type: ADME, organism-based; conditions: in vivo
[3] = Cmax in ICR mouse at 25 mg/kg, po; assay type: ADME, organism-based; design: dose 25 mg/kg, route oral; conditions: in vivo
[4] = Selectivity index, ratio of CC50 for African green monkey Vero cells to MIC for Mycobacterium tuberculosis H37Rv; assay type: toxicity; conditions: read-out: Selectivity Index
[5] = system: Mycobacterium tuberculosis; assay: Antitubercular activity against Mycobacterium tuberculosis H37Rv; assay type: functional
[6] = (§1) Cytotoxicity against African green monkey Vero cells assessed as reduction in cell viability after 72 hrs by MTT assay; assay type: cell-based; conditions: chlorocebus sabaeus, Vero cells
[7] = Tmax in ICR mouse at 25 mg/kg, po; assay type: ADME, organism-based; conditions: in vivo
[8] = Metabolic stability in mouse assessed as half life; assay type: ADME
Enterobacter cloacae = assay: Antibacterial activity against Enterobacter cloacae; assay type: functional
Enterococcus faecium = assay: Antibacterial activity against Enterococcus faecium; assay type: functional
Klebsiella aerogenes = assay: Antibacterial activity against Enterobacter aerogenes; assay type: functional
[9] = system: Staphylococcus epidermidis; assay: Antibacterial activity against methicillin-sensitive Staphylococcus epidermidis; assay type: functional
Pseudomonas aeruginosa = assay: Antibacterial activity against Pseudomonas aeruginosa ATCC 27853; assay type: functional
Staphylococcus aureus [10] = assay: Antibacterial activity against methicillin-sensitive Staphylococcus aureus; assay type: functional
Citrobacter freundii = assay: Antibacterial activity against Citrobacter freundii; assay type: functional
Enterococcus faecalis = assay: Antibacterial activity against Enterococcus faecalis; assay type: functional
[11] = system: Staphylococcus epidermidis; assay: Antibacterial activity against methicillin-resistant Staphylococcus epidermidis; assay type: functional
Escherichia coli = assay: Antibacterial activity against Escherichia coli; assay type: functional
Klebsiella pneumoniae = assay: Antibacterial activity against Klebsiella pneumoniae; assay type: functional
[12] = system: Acinetobacter calcoaceticus; assay: Antibacterial activity against Acinetobacter calcoaceticus; assay type: functional
Staphylococcus aureus [13] = assay: Antibacterial activity against methicillin-resistant Staphylococcus aureus; assay type: functional
Proteus mirabilis = assay: Antibacterial activity against Proteus mirabilis; assay type: functional
Vero = assay: as §1; assay type: cell-based; conditions: chlorocebus sabaeus, vero, 72 h

Row | Compound | selectivity ratio [4] | MIC [5] | CC50 at 72 h [6] | MIC90 (Enterobacter cloacae) | MIC90 (Enterococcus faecium) | MIC90 (Klebsiella aerogenes) | MIC90 [9] | MIC90 (Pseudomonas aeruginosa) | MIC90 (Staphylococcus aureus [10]) | MIC90 (Citrobacter freundii) | MIC90 (Enterococcus faecalis) | MIC90 [11] | MIC90 (Escherichia coli) | MIC90 (Klebsiella pneumoniae) | MIC90 [12] | MIC90 (Staphylococcus aureus [13]) | MIC90 (Proteus mirabilis) | further results
1 | CNC(=O)c1c(-c2ccc(O)cc2)oc2ccc(O)c(CN3CCCCC3)c12 | > 64000 | < 0.016 µg/mL | > 1020 µg/mL | – | – | – | – | – | – | – | – | – | – | – | – | – | – | AUC(0-inf) [1]: 39300 ng·h/mL; half-life [2]: 9.88 h; Cmax [3]: 5060 ng/mL; Tmax [7]: 3.46 h; half-life [8]: > 1 h
2 | CCOC(=O)c1c(-c2ccc(OC)cc2)oc2ccc(OCCCCCCN3C(=O)/C(=N\NC(N)=S)c4cc(F)ccc43)cc12 | > 500 | < 0.016 µg/mL | 8 µg/mL (≈ 12.6 µM) | 0.5 µg/mL (≈ 0.79 µM) | 32 µg/mL (≈ 50.6 µM) | 2 µg/mL (≈ 3.16 µM) | 0.5 µg/mL (≈ 0.79 µM) | 4 µg/mL (≈ 6.32 µM) | 1 µg/mL (≈ 1.58 µM) | 0.25 µg/mL (≈ 0.395 µM) | 1 µg/mL (≈ 1.58 µM) | 2 µg/mL (≈ 3.16 µM) | 0.125 µg/mL (≈ 0.198 µM) | 1 µg/mL (≈ 1.58 µM) | 16 µg/mL (≈ 25.3 µM) | 1 µg/mL (≈ 1.58 µM) | 1 µg/mL (≈ 1.58 µM) | –
3 | CCOC(=O)c1c(-c2ccccc2)oc2ccc(OCCCN3C(=O)/C(=N\OC)c4ccccc43)cc12 | > 2000 | < 0.016 µg/mL | 64 µg/mL (≈ 128 µM) | 2 µg/mL (≈ 4.01 µM) | 8 µg/mL (≈ 16 µM) | 0.25 µg/mL (≈ 0.501 µM) | 0.125 µg/mL (≈ 0.251 µM) | 1 µg/mL (≈ 2.01 µM) | 8 µg/mL (≈ 16 µM) | 0.5 µg/mL (≈ 1 µM) | 1 µg/mL (≈ 2.01 µM) | 0.5 µg/mL (≈ 1 µM) | 0.25 µg/mL (≈ 0.501 µM) | 0.5 µg/mL (≈ 1 µM) | 1 µg/mL (≈ 2.01 µM) | 2 µg/mL (≈ 4.01 µM) | 0.5 µg/mL (≈ 1 µM) | –
4 | CCOC(=O)c1c(-c2ccccc2)oc2ccc(OCCCN3C(=O)/C(=N\OC)c4cc(OC)ccc43)cc12 | > 4000 | < 0.016 µg/mL | 64 µg/mL (≈ 121 µM) | 0.5 µg/mL (≈ 0.946 µM) | 16 µg/mL (≈ 30.3 µM) | 2 µg/mL (≈ 3.78 µM) | 0.5 µg/mL (≈ 0.946 µM) | 1 µg/mL (≈ 1.89 µM) | 1 µg/mL (≈ 1.89 µM) | 0.5 µg/mL (≈ 0.946 µM) | 1 µg/mL (≈ 1.89 µM) | 0.5 µg/mL (≈ 0.946 µM) | 0.125 µg/mL (≈ 0.236 µM) | 0.5 µg/mL (≈ 0.946 µM) | 2 µg/mL (≈ 3.78 µM) | 4 µg/mL (≈ 7.57 µM) | 2 µg/mL (≈ 3.78 µM) | –
5 | O=C(O)c1cn(C2CC2)c2cc(N3CCNCC3)c(F)cc2c1=O [CIPROFLOXACIN] | – | 0.291 µg/mL (≈ 0.878 µM) | 512 µg/mL (≈ 1550 µM) | – | 8 µg/mL (≈ 24.1 µM) | 0.06 µg/mL (≈ 0.181 µM) | 0.125 µg/mL (≈ 0.377 µM) | 0.25 µg/mL (≈ 0.754 µM) | 0.25 µg/mL (≈ 0.754 µM) | 0.03 µg/mL (≈ 0.0905 µM) | 0.5 µg/mL (≈ 1.51 µM) | 4 µg/mL (≈ 12.1 µM) | 0.06 µg/mL (≈ 0.181 µM) | 0.5 µg/mL (≈ 1.51 µM) | 0.5 µg/mL (≈ 1.51 µM) | 0.25 µg/mL (≈ 0.754 µM) | ≤ 0.03 µg/mL | AUC(0-inf) [1]: 17800 ng·h/mL; Cmax [3]: 3130 ng/mL; Tmax [7]: 1.8 h
6 | CCO/N=C1\C(=O)N(CCCCCOc2ccc3oc(-c4ccc(OC)cc4)c(C(=O)OCC)c3c2)c2ccc(OC)cc21 | 102 | 0.156 µg/mL (≈ 0.26 µM) | 16 µg/mL (≈ 26.6 µM) | 0.06 µg/mL (≈ 0.0999 µM) | 16 µg/mL (≈ 26.6 µM) | 0.125 µg/mL (≈ 0.208 µM) | 1 µg/mL (≈ 1.66 µM) | 2 µg/mL (≈ 3.33 µM) | 1 µg/mL (≈ 1.66 µM) | 0.125 µg/mL (≈ 0.208 µM) | 1 µg/mL (≈ 1.66 µM) | 4 µg/mL (≈ 6.66 µM) | 0.125 µg/mL (≈ 0.208 µM) | 2 µg/mL (≈ 3.33 µM) | 2 µg/mL (≈ 3.33 µM) | 1 µg/mL (≈ 1.66 µM) | 0.06 µg/mL (≈ 0.0999 µM) | –
7 | CCOC(=O)c1c(-c2ccc(OC)cc2)oc2ccc(OCCCCCCN3C(=O)/C(=N\OC)c4ccccc43)cc12 | > 2000 | < 0.016 µg/mL | 32 µg/mL (≈ 56.1 µM) | 0.125 µg/mL (≈ 0.219 µM) | 16 µg/mL (≈ 28 µM) | 0.25 µg/mL (≈ 0.438 µM) | 0.5 µg/mL (≈ 0.876 µM) | 2 µg/mL (≈ 3.5 µM) | 2 µg/mL (≈ 3.5 µM) | 0.125 µg/mL (≈ 0.219 µM) | 4 µg/mL (≈ 7.01 µM) | 8 µg/mL (≈ 14 µM) | 0.125 µg/mL (≈ 0.219 µM) | 4 µg/mL (≈ 7.01 µM) | 4 µg/mL (≈ 7.01 µM) | 2 µg/mL (≈ 3.5 µM) | 0.125 µg/mL (≈ 0.219 µM) | –
8 | CCOC(=O)c1c(-c2ccccc2)oc2ccc(OCCCCN3C(=O)/C(=N\OC)c4cc(F)ccc43)cc12 | 516 | 0.062 µg/mL (≈ 0.117 µM) | – | 1 µg/mL (≈ 1.88 µM) | 8 µg/mL (≈ 15.1 µM) | 0.125 µg/mL (≈ 0.236 µM) | 0.25 µg/mL (≈ 0.471 µM) | 0.5 µg/mL (≈ 0.942 µM) | 1 µg/mL (≈ 1.88 µM) | 0.25 µg/mL (≈ 0.471 µM) | 2 µg/mL (≈ 3.77 µM) | 1 µg/mL (≈ 1.88 µM) | 0.125 µg/mL (≈ 0.236 µM) | 0.25 µg/mL (≈ 0.471 µM) | 1 µg/mL (≈ 1.88 µM) | 2 µg/mL (≈ 3.77 µM) | 0.25 µg/mL (≈ 0.471 µM) | CC50 (Vero): 64 µg/mL (≈ 121 µM)
9 | CCOC(=O)c1c(-c2ccc(OC)cc2)oc2ccc(OCCCCN3C(=O)/C(=N\OC)c4ccccc43)cc12 | > 2000 | < 0.016 µg/mL | 32 µg/mL (≈ 59 µM) | 0.25 µg/mL (≈ 0.461 µM) | 8 µg/mL (≈ 14.7 µM) | 0.06 µg/mL (≈ 0.111 µM) | 0.125 µg/mL (≈ 0.23 µM) | 4 µg/mL (≈ 7.37 µM) | 1 µg/mL (≈ 1.84 µM) | 0.25 µg/mL (≈ 0.461 µM) | 1 µg/mL (≈ 1.84 µM) | 0.5 µg/mL (≈ 0.922 µM) | 0.5 µg/mL (≈ 0.922 µM) | 0.25 µg/mL (≈ 0.461 µM) | 1 µg/mL (≈ 1.84 µM) | 1 µg/mL (≈ 1.84 µM) | 0.125 µg/mL (≈ 0.23 µM) | AUC(0-inf) [1]: 3020 ng·h/mL; half-life [2]: 3.33 h; Cmax [3]: 927 ng/mL; Tmax [7]: 1.65 h; half-life [8]: 0.32 h
10 | CCOC(=O)c1c(-c2ccc(OC)cc2)oc2ccc(OCCCCCCN3C(=O)C(=O)c4cc(F)ccc43)cc12 | > 64000 | < 0.016 µg/mL | 1020 µg/mL (≈ 1830 µM) | 0.5 µg/mL (≈ 0.894 µM) | 16 µg/mL (≈ 28.6 µM) | 0.25 µg/mL (≈ 0.447 µM) | 1 µg/mL (≈ 1.79 µM) | 4 µg/mL (≈ 7.15 µM) | 2 µg/mL (≈ 3.57 µM) | 1 µg/mL (≈ 1.79 µM) | 2 µg/mL (≈ 3.57 µM) | 8 µg/mL (≈ 14.3 µM) | 0.125 µg/mL (≈ 0.223 µM) | 1 µg/mL (≈ 1.79 µM) | 4 µg/mL (≈ 7.15 µM) | 2 µg/mL (≈ 3.57 µM) | 0.125 µg/mL (≈ 0.223 µM) | –
11 | CCO/N=C1\C(=O)N(CCCCOc2ccc3oc(-c4ccc(OC)cc4)c(C(=O)OCC)c3c2)c2ccc(F)cc21 | 410 | 0.156 µg/mL (≈ 0.271 µM) | – | 0.25 µg/mL (≈ 0.435 µM) | 32 µg/mL (≈ 55.7 µM) | 0.5 µg/mL (≈ 0.87 µM) | 1 µg/mL (≈ 1.74 µM) | 8 µg/mL (≈ 13.9 µM) | 8 µg/mL (≈ 13.9 µM) | 0.5 µg/mL (≈ 0.87 µM) | 4 µg/mL (≈ 6.96 µM) | 16 µg/mL (≈ 27.8 µM) | 0.5 µg/mL (≈ 0.87 µM) | 2 µg/mL (≈ 3.48 µM) | 8 µg/mL (≈ 13.9 µM) | 4 µg/mL (≈ 6.96 µM) | 0.25 µg/mL (≈ 0.435 µM) | CC50 (Vero): 32 µg/mL (≈ 55.7 µM)
12 | CCOC(=O)c1c(-c2ccc(OC)cc2)oc2ccc(OCCCN3C(=O)/C(=N\OC)c4cc(OC)ccc43)cc12 | > 8000 | < 0.016 µg/mL | 128 µg/mL (≈ 229 µM) | 0.25 µg/mL (≈ 0.448 µM) | 8 µg/mL (≈ 14.3 µM) | 0.125 µg/mL (≈ 0.224 µM) | 0.25 µg/mL (≈ 0.448 µM) | 1 µg/mL (≈ 1.79 µM) | 4 µg/mL (≈ 7.16 µM) | 0.5 µg/mL (≈ 0.895 µM) | 1 µg/mL (≈ 1.79 µM) | 2 µg/mL (≈ 3.58 µM) | 0.25 µg/mL (≈ 0.448 µM) | 1 µg/mL (≈ 1.79 µM) | 4 µg/mL (≈ 7.16 µM) | 2 µg/mL (≈ 3.58 µM) | 0.25 µg/mL (≈ 0.448 µM) | –
